Test results reported in patent US20170042171A1, “METHOD OF HANDLING MANGOES” (AGROFRESH, INC., priority 2011, published 2017).

How the values were obtained:
[1] = tested on: Mangos, Tommy Atkins variety; experiment: Pulp firmness of mangoes after 1-MCP at different concentrations with or without modified B bag, shelf-storage simulation (Example 2); type: in vivo, Mangifera indica; details: for Pulp Firmness Difference from Control: 10° C. 15 hours, then ca. 22° C. three days
Protocol: (§1) Mangoes were evaluated for peel and pulp firmness, which are commercial measures of mango quality, using the following test procedure: • Determination of peel resistant to penetration (peel firmness) was accomplished using a Chatillon penetrometer (model DPPH-100) equipped with a chisel tip (6 mm wide). • Readings were obtained choosing randomly six fruit from each treatment. Each fruit was placed by the side on the penetrometer and then the tip of the instrument (chisel) was stalled into the fruit (about 8 mm deep). Six fruits per treatment were selected and readings were used for obtaining the average value of peel firmness for each treatment. • For testing flesh firmness, the other side of the fruit selected for testing peel resistant to penetration was used. The side not tested for peel resistance to penetration was peeled using a standard fruit peeler (which removed approximately a 2 mm thick peel tissue section). The total area peeled was approximately five square centimeters. • Immediately after removing the peel, each fruit was placed on the penetrometer and a new value of firmness was obtained using the chisel tip (to a depth of about 8 mm). Average values were calculated using six fruits per treatment.
This experiment utilized a modified version of the “B bag”. Rather than three layers, the bag consisted of two extruded layers in an 80/20 ratio with the following composition:
The film was perforated using a laser to give an average hole diameter of 104 micrometers with 52 perforations per bag in four rows. The OTR of the bag was ca. 370 cc/hour.
Mangos, Tommy Atkins variety imported from Guatemala, were kept at a temperature of 10° C. for three days. Portions of the mangos were subjected to one of eight different treatments; control (no 1-MCP or bag), 1-MCP only at 500 ppb, bag only, and bag plus one of five different 1-MCP application rates (50, 100, 500, 1000, and 2500 ppb). Each mango weighed ca. 1.1 Kg. For those mangos placed in bags, the bag contained four fruits for a total of 4.4 Kg of fruit per bag. The 1-MCP applications were made at a temperature of 10° C. for 15 hours. The control and each treated sample were then kept at room temperature (ca. 22° C.) for three days to simulate shelf-storage. Bags were kept closed during the shelf-storage simulation. Pulp firmness was then determined with the following results: […]

[2] = tested on: mangoes, Tommy Adkins cultivar; experiment: Pulp firmness of mangoes after MAP bag and/or 1-MCP exposure prior to transport simulation (Example 1); type: in vivo, Mangifera indica
Protocol: as §1
Fruit was harvested from a commercial mango farm (Mango Rica S.A.) located in Liberia, Guanacaste. Costa Rica on Apr. 7, 2011. […]

SMILES: CC1=CC1 [1-MCP, 1-methylcyclopropene]
- Pulp Firmness Difference from Control ([1]; Treatment 1: 1-MCP 500 ppb, Bag No): 0.43 Lb.
- Pulp Firmness Difference from Control ([1]; Treatment 3: 1-MCP 50 ppb, Bag Yes): 2.00 Lb.
- Pulp Firmness Difference from Control ([1]; Treatment 4: 1-MCP 100 ppb, Bag Yes): 2.70 Lb.
- Pulp Firmness Difference from Control ([1]; Treatment 5: 1-MCP 500 ppb, Bag Yes): 3.35 Lb.
- Pulp Firmness Difference from Control ([1]; Treatment 6: 1-MCP 1000 ppb, Bag Yes): 2.60 Lb.
- Pulp Firmness Difference from Control ([1]; Treatment 7: 1-MCP 2500 ppb, Bag Yes): 3.29 Lb.
- expected additive effect of the 1-MCP treatment and MAP bag alone on pulp firmness ([1]; sum of 1-MCP 500 ppb alone and bag alone): 1.96 lb
- Mango Pulp Firmness Difference (Reported as change from control*) ([2]; 6 mangoes per bag, 500 ppb 1-MCP for 12 hours prior to transport simulation (10-12° C., 18 days), then 18° C.): −0.03 Lbs.
- mango quality based on pulp firmness (in words) ([2]; MCP exposure prior to transport simulation): did not improve the quality of the mangoes
